Values of other authors, collected in patent US8003690B2, “Topical nanoparticulate spironolactone formulation” (Jagotec AG, priority 2002, dated 2011).

solubility in water: 2.8 mg/100 ml
Compound: CC(=O)S[C@@H]1CC2=CC(=O)CC[C@]2(C)[C@H]2CC[C@@]3(C)[C@@H](CC[C@@]34CCC(=O)O4)[C@H]12 [Spironolactone]
